Laboratory results: patent publication US6723726B1 (SmithKline Beecham Corporation, priority 1996, dated 2004)
Counter-ions that a name gives are not always drawn. Like-named read-outs stand apart in the source and are kept apart here.

Key:
N87 cells = assay: Cell proliferation assay, N87 gastric tumour cell line; assay type: cell-based, human; conditions: read-out: Cell Proliferation N87 IC50
Experimental: (§1) The cell proliferation assay uses an immortalised human breast epithelial cell line (HB4a) which has been transformed by over-expression of c-erbB-2. Growth of these cells in low serum is dependent upon the c-erbB-2 tyrosine kinase activity. The specificity of the effect of the test compounds on tyrosine kinase dependent growth over general toxicity is assessed by comparison to an HB4a cell line which has been transfected with ras. Cells are plated at 3000/well in 96-well plates in 0.1 ml medium and allowed to attach overnight, test compound is added in 0.1 ml medium, with a final concentration of 0.5% DMSO, and the plates incubated for 4 days at 37° C. The cells are then examined microscopically for evidence of morphological detransformation and cell mass is estimated by staining with methylene blue and measuring the absorbance at 620 nm. The results are shown in Table 1 below as the IC50 values in nM. Activity against a range of naturally occurring EGFr or c-erbB-2 over-expressing human tumour cell lines (BT474-breast, HN5-head and neck, N87-gastric and Calu3-lung) is assessed with selected compounds by the same methodology. The results are also shown in Table 1 below as the IC50 values in nM.

BT474 cells = assay: Cell proliferation assay, BT474 breast tumour cell line; assay type: cell-based, human; conditions: read-out: Cell Proliferation BT474 IC50
Experimental: as §1

[1] = molecular target: T1, c-erbB-2 (baculovirus expressed recombinant intracellular domain) (Homo sapiens, UniProt P04626); assay: Substrate phosphorylation assay, c-erbB-2; assay type: biochemical; conditions: ATP and peptide at Km, 30 min, room temperature
T1 construct: baculovirus expressed, recombinant constructs of the intracellular domains of c-erbB-2 and c-erbB-4 that are constitutively active; made in house
T1 sequence (P04626 676-1255 limits assumed): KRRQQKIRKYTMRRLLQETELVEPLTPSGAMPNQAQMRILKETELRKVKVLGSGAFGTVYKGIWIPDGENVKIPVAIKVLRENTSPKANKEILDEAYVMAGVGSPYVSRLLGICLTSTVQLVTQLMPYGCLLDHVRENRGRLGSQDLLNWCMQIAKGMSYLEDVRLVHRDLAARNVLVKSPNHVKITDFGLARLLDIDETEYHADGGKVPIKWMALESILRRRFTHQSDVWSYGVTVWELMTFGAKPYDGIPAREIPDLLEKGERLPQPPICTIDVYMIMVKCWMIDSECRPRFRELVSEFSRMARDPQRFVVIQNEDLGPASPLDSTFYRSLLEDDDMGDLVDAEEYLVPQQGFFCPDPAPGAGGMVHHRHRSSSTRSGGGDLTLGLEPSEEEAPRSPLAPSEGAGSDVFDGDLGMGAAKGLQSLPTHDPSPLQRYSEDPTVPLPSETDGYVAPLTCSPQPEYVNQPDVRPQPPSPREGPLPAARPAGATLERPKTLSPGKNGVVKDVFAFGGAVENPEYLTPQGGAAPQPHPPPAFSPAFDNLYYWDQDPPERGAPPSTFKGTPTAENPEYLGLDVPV
Experimental: (§2) The substrate phosphorylation assays use baculovirus expressed, recombinant constructs of the intracellular domains of c-erbB-2 and c-erbB-4 that are constitutively active and EGFr isolated from solubilised A431 cell membranes. The method measures the ability of the isolated enzymes to catalyse the transfer of the γ-phosphate from ATP onto tyrosine residues in a biotinylated synthetic peptide (Biotin-[…]. […] The reaction is stopped by the addition of EDTA (final concentration 0.15 mM) and a sample is transferred to a streptavidin-coated 96-well plate. The plate is washed and level of phosphotyrosine on the peptide is determined using a Europium-labelled antiphosphotyrosine antibody and quantified with a time-resolved fluorescence technique.

Calu3 cells = assay: Cell proliferation assay, Calu3 lung tumour cell line; assay type: cell-based, human; conditions: Homo sapiens, Calu-3, 96 h, read-out: Cell Proliferation Calu3 IC50
Experimental: as §1

HB4a ras cells = assay: Cell proliferation assay, HB4a transfected with ras (general toxicity comparison); assay type: cell-based, human; conditions: read-out: Cell Proliferation HB4a ras IC50
Experimental: as §1

HN5 cells = assay: Cell proliferation assay, HN5 head and neck tumour cell line; assay type: cell-based; conditions: Homo sapiens, HN5, 96 h, read-out: Cell Proliferation HN5 IC50
Experimental: as §1

[2] = molecular target: T2, c-erbB-4 (baculovirus expressed recombinant intracellular domain) (Homo sapiens, UniProt Q15303); assay: Substrate phosphorylation assay, c-erbB-4; assay type: biochemical; conditions: ATP and peptide at Km, 30 min, room temperature
T2 construct: baculovirus expressed, recombinant constructs of the intracellular domains of c-erbB-2 and c-erbB-4 that are constitutively active; made in house
T2 sequence (Q15303 676-1308 limits assumed): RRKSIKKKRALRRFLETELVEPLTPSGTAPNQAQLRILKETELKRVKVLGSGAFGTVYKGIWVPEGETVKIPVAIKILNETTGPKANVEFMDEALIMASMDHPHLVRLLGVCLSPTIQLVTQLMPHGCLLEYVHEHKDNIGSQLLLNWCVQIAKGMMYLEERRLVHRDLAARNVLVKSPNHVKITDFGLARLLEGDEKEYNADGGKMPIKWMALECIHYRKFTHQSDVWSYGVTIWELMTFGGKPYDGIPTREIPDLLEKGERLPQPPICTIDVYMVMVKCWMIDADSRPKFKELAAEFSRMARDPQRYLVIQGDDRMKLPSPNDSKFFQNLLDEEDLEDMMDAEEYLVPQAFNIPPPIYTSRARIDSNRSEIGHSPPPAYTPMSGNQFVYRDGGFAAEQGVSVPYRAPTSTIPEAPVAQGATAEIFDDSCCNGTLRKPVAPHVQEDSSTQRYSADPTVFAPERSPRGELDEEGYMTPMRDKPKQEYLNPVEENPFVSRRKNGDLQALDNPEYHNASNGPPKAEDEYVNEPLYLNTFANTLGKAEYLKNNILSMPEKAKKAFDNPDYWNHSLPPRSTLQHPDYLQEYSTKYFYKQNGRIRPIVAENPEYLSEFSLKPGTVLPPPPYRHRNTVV
Experimental: as §2

HB4a erbB-2 cells = assay: Cell proliferation assay, HB4a transformed by over-expression of c-erbB-2; assay type: cell-based, human; conditions: read-out: Cell Proliferation HB4a erbB-2 IC50
Experimental: as §1

[3] = molecular target: T3, EGFr isolated from solubilised A431 cell membranes (Homo sapiens, UniProt P00533); assay: Substrate phosphorylation assay, EGFr; assay type: biochemical; conditions: ATP and peptide at Km, 30 min, room temperature
T3 construct: EGFr isolated from solubilised A431 cell membranes; endogenous in cells; host or cells: A431 cell membranes (solubilised)
T3 sequence (P00533 25-1210): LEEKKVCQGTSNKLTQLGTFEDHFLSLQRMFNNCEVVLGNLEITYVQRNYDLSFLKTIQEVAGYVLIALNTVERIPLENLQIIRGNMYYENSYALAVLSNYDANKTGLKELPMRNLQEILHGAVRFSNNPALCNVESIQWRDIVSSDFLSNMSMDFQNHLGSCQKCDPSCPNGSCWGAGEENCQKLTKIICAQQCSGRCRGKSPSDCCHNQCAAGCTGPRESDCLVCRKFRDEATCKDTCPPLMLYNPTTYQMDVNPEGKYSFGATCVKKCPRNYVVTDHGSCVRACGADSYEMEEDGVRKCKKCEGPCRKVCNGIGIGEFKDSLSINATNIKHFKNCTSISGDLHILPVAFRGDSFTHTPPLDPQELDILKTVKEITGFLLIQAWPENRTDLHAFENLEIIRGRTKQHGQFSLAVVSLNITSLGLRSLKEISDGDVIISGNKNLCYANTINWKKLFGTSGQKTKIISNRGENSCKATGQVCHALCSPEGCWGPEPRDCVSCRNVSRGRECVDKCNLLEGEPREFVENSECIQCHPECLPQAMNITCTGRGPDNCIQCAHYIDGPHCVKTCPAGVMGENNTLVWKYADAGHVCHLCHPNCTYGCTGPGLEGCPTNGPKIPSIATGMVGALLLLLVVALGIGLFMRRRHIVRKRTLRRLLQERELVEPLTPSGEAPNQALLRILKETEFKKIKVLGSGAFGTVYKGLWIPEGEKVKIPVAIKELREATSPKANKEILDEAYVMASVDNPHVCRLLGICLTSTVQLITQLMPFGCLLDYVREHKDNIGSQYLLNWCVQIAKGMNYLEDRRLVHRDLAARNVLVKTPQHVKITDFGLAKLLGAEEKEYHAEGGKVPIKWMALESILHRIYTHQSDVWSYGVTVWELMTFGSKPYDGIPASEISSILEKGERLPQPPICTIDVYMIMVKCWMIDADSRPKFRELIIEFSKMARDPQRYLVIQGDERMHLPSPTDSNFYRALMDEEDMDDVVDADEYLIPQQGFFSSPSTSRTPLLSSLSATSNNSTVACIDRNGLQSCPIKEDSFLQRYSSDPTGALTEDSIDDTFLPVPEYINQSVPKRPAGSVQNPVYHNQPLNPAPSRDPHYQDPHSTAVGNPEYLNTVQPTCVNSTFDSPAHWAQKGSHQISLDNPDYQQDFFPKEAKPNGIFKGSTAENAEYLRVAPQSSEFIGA
Experimental: as §2

[4] = Homo sapiens, 96 h, 4 days, methylene blue staining
[5] = Homo sapiens, BT-474, 96 h, 4 days, methylene blue staining
[6] = 4 days, methylene blue staining
[7] = Homo sapiens, HB4a, 96 h, 4 days, methylene blue staining

IC50 (N87 cells; Homo sapiens, 96 h)	IC50 (BT474 cells; Homo sapiens, BT-474, 96 h)	IC50 [1]	IC50 (Calu3 cells)	IC50 (HN5 cells)	IC50 [2]	IC50 (N87 cells; [4])	IC50 (BT474 cells; [5])	IC50 [3]	IC50 (Calu3 cells; [6])	IC50 (HN5 cells; [6])	IC50 (N87 cells; [6])	IC50 (BT474 cells; [6])	Compound	IC50 (HB4a ras cells; Homo sapiens, HB4a, 96 h)	IC50 (HB4a erbB-2 cells; Homo sapiens, HB4a, 96 h)	IC50 (HB4a ras cells; [7])	IC50 (HB4a erbB-2 cells; [7])	IC50 (HB4a ras cells; [6])	IC50 (HB4a erbB-2 cells; [6])
240 nM	140 nM	19 nM	380 nM	300 nM	20 nM								CN(C)c1cc2c(Nc3ccc4c(cnn4Cc4ccccc4)c3)ncnc2cn1 [Example 2, N 4-(1-Benzyl-1H-indazol-5-yl)-N6,N6-dimethyl-pyrido[3,4-d]pyrimidine-4.6-diamine]	17000 nM	110 nM				
		65 nM			180 nM	2200 nM	1100 nM	30 nM	3700 nM	2000 nM			CNc1cc2c(Nc3ccc4c(cnn4Cc4ccccc4)c3)ncnc2cn1 [Example 37, N4-(1-Benzyl-1H-indazol-5-yl)-N6-methyl-pyrido[3,4-d]pyrimidine-4,6diamine]			17000 nM	520 nM		
		9 nM			96 nM	120 nM	1 nM		180 nM	81 nM			CN(C)c1cc2c(Nc3ccc4c(cnn4Cc4cccc(F)c4)c3)ncnc2cn1 [Example 16, N4-(1-(3-Fluoro-benzyl)-1H-indazol-5-yl)-N6,N6-dimethyl-pyrido[3,4-d]pyrimidine-4.6-diamine Hydrochloride]			11000 nM	44 nM		
		7 nM			21 nM		610 nM		8000 nM				CN(C)c1cc2c(Nc3ccc4nc(Cc5ccccc5)[nH]c4c3)ncnc2cn1 [Example 7, N4-(2-Benzyl-1H-benzimidazol-5-yl)-N6,N6-dimethyl-pyrido[3,4-d]pyrimidine-4,6-diamine]			19000 nM	1900 nM		
		55 nM			140 nM	600 nM	1000 nM		8200 nM	4200 nM			CN1CCN(c2cc3c(Nc4ccc5c(cnn5Cc5ccccc5)c4)ncnc3cn2)CC1 [Example 32, (1-Benzyl-1H-indazol-5-yl)-(6-(4-methyl-piperazin-1-yl)-pyrido[3,4-d]pyrimidin-4-yl)-amine]			8800 nM	100 nM		
		60 nM			570 nM			380 nM			940 nM	270 nM	c1ccc(Cn2ncc3cc(Nc4ncnc5cnc(N6CCCCC6)cc45)ccc32)cc1 [Example 25]					> 50000 nM	480 nM
		6 nM			10 nM	2 nM	2 nM		160 nM	130 nM			NC(=O)[C@@H]1CCCN1Cc1ccc(-c2cc3c(Nc4ccc5c(cnn5Cc5ccccc5)c4)ncnc3cn2)o1 [Example 10, (2S)1-(5-(4-(1-Benzyl-1H-indazol-5-ylamino)-6-pydrido[3,4-d]pyrimidin-6-yl)-furan-2-ylmethyl)-pyrrolidine-2-carboxylic Acid Amide Hydrochloride]			21000 nM	71 nM		
		9 nM			55 nM	370 nM	1400 nM	15 nM	1200 nM	1400 nM			Cn1cncc1-c1cc2c(Nc3ccc4c(cnn4Cc4ccccc4)c3)ncnc2cn1 [Example 11, (1-Benzyl-1H-indazol-5-yl)-(6-(3-methyl-3H-imidazol-4-yl)-pyrido[3,4-d]pyrimidin-4-yl)-amine]			3800 nM	1400 nM		
		15 nM			230 nM	190 nM	2 nM		1300 nM	190 nM			CS(=O)(=O)CCNCc1ccc(-c2cc3c(Nc4ccc5c(cnn5Cc5ccccc5)c4)ncnc3cn2)o1 [Example 34, (1-Benzyl-1H-indazol-5-yl)-(6-(5-((2-methanesuphonyl-ethylamino)-methyl)-furan-2-yl)-pyrido-[3,4-d]pyrimidin-4-yl)-amine Hydrochloride]			17000 nM	70 nM		
		2 nM			5500 nM	10000 nM	11000 nM	2 nM					Cc1nnc(-c2cc3c(Nc4ccc5c(cnn5Cc5ccccc5)c4)ncnc3cn2)o1 [Example 29, (1-Benzyl-1H-indazol-5-yl)-(6-(5-methyl-1,3,4-oxadiazol-2-yl)-pyrido[3,4-d]pyrimidin-4-yl)-amine Hydrochloride]			29000 nM	5200 nM		
